Test results published in PMC9069406 (Acta Pharmaceutica Sinica. B, 2021).

System: 4T1 (murine TNBC) cells
Assay: TNBC allograft model
Type: in vivo, mice
Conditions: 0.5 mg/kg i.p. daily, 18 days

## N.N.[Cl][Pt][Cl] [cisplatin]
  reduction of average tumor weight at sacrifice: 25.2%
